Among the data in patent publication US7208512B2, “Benzodifuranimidazoline and benzofuranimidazoline derivatives and their use for the treatment of glaucoma” (Alcon, Inc., priority 2001, dated 2007) are IC50 and EC50 values, retold here.

Assay [1] concerns the target T1, 5-HT2 receptor (Rattus norvegicus, UniProt P14842). Kind of assay: 5-HT2 receptor binding assay ([125I]DOI competition, rat cerebral cortex homogenates). On the procedure: Aliquots of post mortem rat cerebral cortex homogenates (400 μl) dispersed in 50 mM TrisHCl buffer (pH 7.4) are incubated with [^125I]DOI (80 pM final) in the absence or presence of methiothepin (10 μM final) to define total and non-specific binding, respectively, in a total volume of 0.5 ml. The assay mixture is incubated for 1 hour at 23° C. in polypropylene tubes and the assays terminated by rapid vacuum filtration over Whatman GF/B glass fiber filters previously soaked in 0.3% polyethyleneimine using ice-cold buffer. Test compounds (at different concentrations) are substituted for methiothepin. Filter-bound radioactivity is determined by scintillation spectrometry on a beta counter. The data are analyzed using a non-linear, iterative curve-fitting computer program (Bowen et al. 1995) to determine the compound affinity parameter.

The target of assay [2] is T1, 5-HT2 receptor. As to the kind of experiment: 5-HT2 functional assay: phosphoinositide (PI) turnover in A7r5 rat vascular smooth muscle cells. The class given is cell-based. Also noted: A7r5 rat vascular smooth muscle cells; endogenous in cells; host or cells: A7r5 rat vascular smooth muscle cells. The note with it: [3H]-IPs production in A7r5 cells. On the procedure: The relative agonist activity of serotonergic compounds at the 5-HT2 receptor can be determined in vitro using the ability of the compounds to stimulate the production of [^3H]inositol phosphates in [^3H]myo-inositol-labeled A7r5 rat vascular smooth muscle cells by their ability to activate the enzyme phospholipase C. These cells are grown in culture plates, maintained in a humidified atmosphere of 5% CO2 and 95% air and fed semi-weekly with Dulbecco's modified Eagle medium (DMEM) containing 4.5 g/l glucose and supplemented with 2 mM glutamine, 10 μg/ml gentamicin, and 10% fetal bovine serum. […] Confluent cells are exposed for 24–30 hrs to 1.5 μCi [^3H]-myo-inositol (18.3 Ci/mmol) in 0.5 ml of serum-free medium. Cells are then rinsed once with DMEM/F-12 containing 10 mM LiCl prior to incubation with the test agent (or solvent as the control) in 1.0 ml of the same medium for 1 hr at 37° C., after which the medium is aspirated and 1 ml of cold 0.1 M formic acid added to stop the reaction. […] The eluate (4 ml) is collected, mixed with 15 ml scintillation fluid, and the total [^3H]-IPs determined by scintillation counting on a beta-counter. Concentration-response data are analyzed by the sigmoidal fit function of the Origin Scientific Graphics software (Microcal Software, Northampton, Mass.) to determine agonist potency (EC50 value) and efficacy (Emax). […]

Usually IC50 stands for the concentration at which inhibition is half-maximal. Read a high IC50 as weaker potency. A word on the EC50: it is the concentration at which the effect is half-maximal. Higher therefore signals lower potency in that assay.

T1 sequence (P14842 whole entry): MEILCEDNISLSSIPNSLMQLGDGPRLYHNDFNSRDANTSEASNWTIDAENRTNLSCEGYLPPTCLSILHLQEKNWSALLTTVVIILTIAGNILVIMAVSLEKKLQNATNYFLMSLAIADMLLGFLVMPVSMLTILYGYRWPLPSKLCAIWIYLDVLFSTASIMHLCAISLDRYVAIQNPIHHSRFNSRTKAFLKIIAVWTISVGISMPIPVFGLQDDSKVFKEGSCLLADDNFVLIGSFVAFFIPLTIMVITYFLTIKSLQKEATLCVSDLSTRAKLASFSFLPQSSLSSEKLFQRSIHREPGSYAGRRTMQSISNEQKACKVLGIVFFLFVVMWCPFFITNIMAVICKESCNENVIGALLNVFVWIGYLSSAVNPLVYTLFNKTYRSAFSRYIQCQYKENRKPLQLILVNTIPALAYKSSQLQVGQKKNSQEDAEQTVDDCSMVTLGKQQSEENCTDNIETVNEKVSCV

In turn, `COc1cc(C[C@@H](C)N)c(OC)cc1I` [(R)-DOI, reference compound] displayed an IC50 on 5-HT2 receptor [1] of 0.46 nM. Besides, at 5-HT2 receptor [2], the concentration for a half-maximal effect (EC50) was 277 nM.
